Test results reported in patent publication US11878966B2, “Substituted 4-benzyl and 4-benzoyl piperidine derivates” (89BIO LTD, priority 2015, dated 2024).

These compounds were tested against T1, recombinant human baculovirus-expressed GST-tagged FASN (Homo sapiens, UniProt P49327) (assay: FASN enzyme activity assay: fluorescence-based detection of CoA with CPM). Conditions: 5 nM FASN, 150 μM NADPH, 10 μM acetyl-CoA, 25 μM malonyl-CoA, 90 minutes incubation.
T1 construct: GST; host or cells: baculovirus expression system (insect cells implied)
Type: biochemical
Summary of the method: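 IC50 values were fitted (variable-slope sigmoid) to percent inhibition from CPM fluorescence (390/530 nm) reporting free CoA after a 30 min labelling step. The reaction ran 90 min after malonyl-CoA (25 μM) addition, with 10 μM acetyl-CoA, 150 μM NADPH, 5 nM recombinant GST-FASN, 50 mM HEPES pH 7.5 and 0.5% DMSO.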

T1 sequence (P49327 whole entry): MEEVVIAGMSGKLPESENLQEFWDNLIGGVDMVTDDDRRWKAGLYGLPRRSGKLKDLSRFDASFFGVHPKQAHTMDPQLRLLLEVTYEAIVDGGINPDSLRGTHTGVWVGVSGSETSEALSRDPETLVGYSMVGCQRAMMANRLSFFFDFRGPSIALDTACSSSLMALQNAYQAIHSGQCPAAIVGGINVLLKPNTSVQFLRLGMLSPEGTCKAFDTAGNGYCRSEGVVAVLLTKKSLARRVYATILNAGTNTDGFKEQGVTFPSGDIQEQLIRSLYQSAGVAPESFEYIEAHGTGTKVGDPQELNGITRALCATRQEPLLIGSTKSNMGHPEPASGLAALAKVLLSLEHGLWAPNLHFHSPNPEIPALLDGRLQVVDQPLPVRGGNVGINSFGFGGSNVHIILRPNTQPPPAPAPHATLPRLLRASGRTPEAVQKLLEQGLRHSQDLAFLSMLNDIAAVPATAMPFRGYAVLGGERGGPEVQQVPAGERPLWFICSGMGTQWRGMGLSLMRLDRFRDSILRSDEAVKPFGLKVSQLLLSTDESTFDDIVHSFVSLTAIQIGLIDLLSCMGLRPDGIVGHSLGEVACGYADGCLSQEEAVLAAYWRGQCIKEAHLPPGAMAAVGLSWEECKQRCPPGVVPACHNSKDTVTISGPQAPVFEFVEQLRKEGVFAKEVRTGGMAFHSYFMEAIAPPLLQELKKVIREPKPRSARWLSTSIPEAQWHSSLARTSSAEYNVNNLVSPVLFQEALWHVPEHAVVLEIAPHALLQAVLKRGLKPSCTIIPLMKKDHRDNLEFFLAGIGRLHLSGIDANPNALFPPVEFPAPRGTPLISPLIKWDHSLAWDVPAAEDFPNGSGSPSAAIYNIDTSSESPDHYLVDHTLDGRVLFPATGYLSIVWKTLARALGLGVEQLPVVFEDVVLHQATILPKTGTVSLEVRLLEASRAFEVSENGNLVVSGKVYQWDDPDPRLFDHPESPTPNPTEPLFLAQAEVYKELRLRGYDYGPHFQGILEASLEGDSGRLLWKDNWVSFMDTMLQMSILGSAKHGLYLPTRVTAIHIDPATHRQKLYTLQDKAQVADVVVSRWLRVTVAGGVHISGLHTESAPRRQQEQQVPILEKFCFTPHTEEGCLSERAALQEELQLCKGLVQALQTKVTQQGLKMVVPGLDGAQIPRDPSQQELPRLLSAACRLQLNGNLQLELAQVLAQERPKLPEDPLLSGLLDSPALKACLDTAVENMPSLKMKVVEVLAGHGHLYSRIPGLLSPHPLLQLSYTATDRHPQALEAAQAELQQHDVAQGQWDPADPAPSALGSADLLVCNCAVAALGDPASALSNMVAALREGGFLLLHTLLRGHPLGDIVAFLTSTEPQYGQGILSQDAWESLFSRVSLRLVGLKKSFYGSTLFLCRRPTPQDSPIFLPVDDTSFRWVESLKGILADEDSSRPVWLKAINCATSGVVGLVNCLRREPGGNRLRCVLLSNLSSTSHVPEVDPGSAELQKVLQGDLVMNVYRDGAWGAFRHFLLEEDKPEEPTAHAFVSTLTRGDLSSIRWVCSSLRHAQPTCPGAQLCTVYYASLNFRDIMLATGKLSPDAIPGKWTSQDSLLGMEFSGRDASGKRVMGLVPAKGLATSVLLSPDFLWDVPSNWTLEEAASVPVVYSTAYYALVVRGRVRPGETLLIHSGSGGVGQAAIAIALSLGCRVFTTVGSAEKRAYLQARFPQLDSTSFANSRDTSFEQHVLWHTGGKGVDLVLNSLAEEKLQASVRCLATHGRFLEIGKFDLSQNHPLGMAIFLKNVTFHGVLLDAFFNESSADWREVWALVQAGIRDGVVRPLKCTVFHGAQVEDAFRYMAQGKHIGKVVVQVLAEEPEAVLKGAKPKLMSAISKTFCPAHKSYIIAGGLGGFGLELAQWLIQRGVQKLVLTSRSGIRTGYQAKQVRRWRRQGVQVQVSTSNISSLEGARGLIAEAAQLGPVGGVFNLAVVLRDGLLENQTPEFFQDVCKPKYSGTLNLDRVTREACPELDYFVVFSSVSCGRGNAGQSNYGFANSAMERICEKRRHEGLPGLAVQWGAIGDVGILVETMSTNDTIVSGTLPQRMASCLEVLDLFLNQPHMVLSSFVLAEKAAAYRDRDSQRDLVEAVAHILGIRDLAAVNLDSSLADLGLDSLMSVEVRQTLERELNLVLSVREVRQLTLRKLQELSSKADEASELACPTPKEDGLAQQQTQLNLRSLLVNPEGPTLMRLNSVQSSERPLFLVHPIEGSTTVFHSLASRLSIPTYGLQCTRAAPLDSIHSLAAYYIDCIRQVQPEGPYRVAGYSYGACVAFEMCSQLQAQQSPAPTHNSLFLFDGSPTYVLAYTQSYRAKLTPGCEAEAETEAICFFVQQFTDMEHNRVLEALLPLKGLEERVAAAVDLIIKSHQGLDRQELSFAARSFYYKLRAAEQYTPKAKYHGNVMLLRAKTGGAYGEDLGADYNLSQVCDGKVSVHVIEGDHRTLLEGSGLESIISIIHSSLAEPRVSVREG

SMILES | IC50
O=C(C1CC1)N1CC=C(Cc2ccc(-c3cncc4ccccc34)cc2)CC1 [Example 178, Cyclopropyl(4-(4-(isoquinolin-4-yl)benzyl)-5,6-dihydropyridin-1(2H)-yl)methanone] | 100 to 999 nM
O=C(C1CC1)N1CCC(F)(Cc2ccc(-c3ccc4occc4c3)cc2)CC1 [Example 179, (4-(4-(benzofuran-5-yl)benzyl)-4-fluoropiperidin-1-yl)(cyclopropyl)methanone] | 100 to 999 nM
O=C(C1CC1)N1CC=C(Cc2ccc(-c3ccc4occc4c3)cc2)CC1 [Example 180, (4-(4-(benzofuran-5-yl)benzyl)-5,6-dihydropyridin-1(2H)-yl)(cyclopropyl)methanone] | 1000 to 10000 nM
Cc1c(-c2ccc(CC3(F)CCN(C(=O)[C@H]4CCCO4)CC3)cc2)cnc2ccccc12 [Example 181, (R)-(4-fluoro-4-(4-(4-methylquinolin-3-yl)benzyl)piperidin-1-yl)(tetrahydrofuran-2-yl)methanone] | 1 to 99 nM
Cc1c(-c2ccc(CC3=CCN(C(=O)[C@H]4CCCO4)CC3)cc2)cnc2ccccc12 [Example 182, (R)-(4-(4-(4-methylquinolin-3-yl)benzyl)-5,6-dihydropyridin-1(2H)-yl)(tetrahydrofuran-2-yl)methanone] | 1 to 99 nM
Cc1c(-c2ccc(CC3(F)CCN(C(=O)C4CC4)CC3)cc2)ccc2cccnc12 [Example 183, Cyclopropyl(4-fluoro-4-(4-(8-methylquinolin-7-yl)benzyl)piperidin-1-yl)methanone] | 1 to 99 nM
Cc1c(-c2ccc(CC3=CCN(C(=O)C4CC4)CC3)cc2)ccc2cccnc12 [Example 184, Cyclopropyl(4-(4-(8-methylquinolin-7-yl)benzyl)-3,6-dihydropyridin-1(2H)-yl)methanone] | 100 to 999 nM
CCC(=O)N1CCC(F)(Cc2ccc(-c3ccc4cccnc4c3C)cc2)CC1 [Example 185, 1-(4-fluoro-4-(4-(8-methylquinolin-7-yl)benzyl)piperidin-1-yl)propan-1-one] | 1 to 99 nM
CCC(=O)N1CC=C(Cc2ccc(-c3ccc4cccnc4c3C)cc2)CC1 [Example 186, 1-(4-(4-(8-methylquinolin-7-yl)benzyl)-3,6-dihydropyridin-1(2H)-yl)propan-1-one] | 1 to 99 nM
O=C([C@H]1CCCO1)N1CCC(F)(Cc2ccc(-c3ccc4cccnc4c3)cc2)CC1 [Example 187, (R)-(4-fluoro-4-(4-(quinolin-7-yl)benzyl)piperidin-1-yl)(tetrahydrofuran-2-yl)methanone] | 1 to 99 nM
Cc1c(-c2ccc(CC3(F)CCN(C(=O)C4CC4)CC3)cc2)cnc2ccccc12 [Example 191, Cyclopropyl(4-fluoro-4-(4-(4-methylquinolin-3-yl)benzyl)piperidin-1-yl)methanone] | 1 to 99 nM
Cc1c(-c2ccc(CC3=CCN(C(=O)C4CC4)CC3)cc2)cnc2ccccc12 [Example 192, Cyclopropyl(4-(4-(4-methylquinolin-3-yl)benzyl)-5,6-dihydropyridin-1(2H)-yl)methanone] | 100 to 999 nM
CCC(=O)N1CCC(F)(Cc2ccc(-c3cnc4ccccc4c3Cl)cc2)CC1 [Example 193, 1-(4-(4-(4-chloroquinolin-3-yl)benzyl)-4-fluoropiperidin-1-yl)propan-1-one] | 1 to 99 nM
CCC(=O)N1CC=C(Cc2ccc(-c3cnc4ccccc4c3Cl)cc2)CC1 [Example 194, 1-(4-(4-(4-Chloroquinolin-3-yl)benzyl)-3,6-dihydropyridin-1(2H)-yl)propan-1-one] | 100 to 999 nM
CCC(=O)N1CCC(F)(Cc2ccc(-c3cnc4ccccc4c3C)cc2)CC1 [Example 195, 1-(4-Fluoro-4-(4-(4-methylquinolin-3-yl)benzyl)piperidin-1-yl)propan-1-one] | 1 to 99 nM
CCC(=O)N1CC=C(Cc2ccc(-c3cnc4ccccc4c3C)cc2)CC1 [Example 196, 1-(4-(4-(4-Methylquinolin-3-yl)benzyl)-5,6-dihydropyridin-1(2H)-yl)propan-1-one] | 1 to 99 nM
O=C(C1CC1)N1CCC(F)(Cc2ccc(-c3cnc4ccccc4c3Cl)cc2)CC1 [Example 197, (4-(4-(4-Chloroquinolin-3-yl)benzyl)-4-fluoropiperidin-1-yl)(cyclopropyl)-methanone] | 1 to 99 nM
O=C(C1CC1)N1CC=C(Cc2ccc(-c3cnc4ccccc4c3Cl)cc2)CC1 [Example 198, (4-(4-(4-Chloroquinolin-3-yl)benzyl)-3,6-dihydropyridin-1(2H)-yl)(cyclopropyl)methanone] | 100 to 999 nM
Cc1c(-c2ccc(CC3(F)CCN(C(=O)[C@H]4CCCO4)CC3)cc2)ccc2cccnc12 [Example 199, (R)-(4-fluoro-4-(4-(8-methylquinolin-7-yl)benzyl)piperidin-1-yl)(tetrahydrofuran-2-yl)methanone] | 1 to 99 nM
Cc1c(-c2ccc(CC3=CCN(C(=O)[C@H]4CCCO4)CC3)cc2)ccc2cccnc12 [Example 200, (R)-(4-(4-(8-methylquinolin-7-yl)benzyl)-3,6-dihydropyridin-1(2H)-yl)(tetrahydrofuran-2-yl)methanone] | 1 to 99 nM

SMILES | IC50
O=C([C@H]1CCCO1)N1CCC(F)(Cc2ccc(-c3cnc4ccccc4c3Cl)cc2)CC1 [Example 201, (R)-(4-(4-(4-chloroquinolin-3-yl)benzyl)-4-fluoropiperidin-1-yl)(tetrahydrofuran-2-yl)methanone] | 1 to 99 nM
O=C([C@H]1CCCO1)N1CC=C(Cc2ccc(-c3cnc4ccccc4c3Cl)cc2)CC1 [Example 202, (R)-(4-(4-(4-chloroquinolin-3-yl)benzyl)-3,6-dihydropyridin-1(2H)-yl)(tetrahydrofuran-2-yl)methanone] | 1 to 99 nM
CC(C)(c1ccc(-c2cnc3ccccc3c2)cc1)C1CCN(C(=O)[C@H]2CCCO2)CC1 [Example 203] | 1 to 99 nM
CC(C)(c1ccc(-c2cnc3ccccc3c2)cc1)C1CCN(C(=O)C2CC2)CC1 [Example 204, Cyclopropyl(4-(2-(4-(quinolin-3-yl)phenyl)propan-2-yl)piperidin-1-yl)methanone] | 100 to 999 nM
CCC(=O)N1CCC(C(C)(C)c2ccc(-c3cnc4ccccc4c3)cc2)CC1 [Example 205, 1-(4-(2-(4-(quinolin-3-yl)phenyl)propan-2-yl)piperidin-1-yl)propan-1-one] | 100 to 999 nM
CCOC(C)(c1ccc(-c2cnc3ccccc3c2)cc1)C1CCN(C(=O)CC)CC1 (stereo not shown) [Example 206, 1-{4-[1-Ethoxy-1-(4-quinolin-3-yl-phenyl)-ethyl]-piperidin-1-yl}-propan-1-one] | 100 to 999 nM
CCOC(C)(c1ccc(-c2cnc3ccccc3c2)cc1)C1CCN(C(=O)C2CC2)CC1 (stereo not shown) [Example 207, Cyclopropyl-{4-[1-ethoxy-1-(4-quinolin-3-yl-phenyl)-ethyl]-piperidin-1-yl}-methanone] | 100 to 999 nM
CCC(=O)N1CCC(C(C)(OC)c2ccc(-c3cnc4ccccc4c3)cc2)CC1 (stereo not shown) [Example 208, 1-{4-[1-Methoxy-1-(4-quinolin-3-yl-phenyl)-ethyl]-piperidin-1-yl}-propan-1-one] | 100 to 999 nM
COC(C)(c1ccc(-c2cnc3ccccc3c2)cc1)C1CCN(C(=O)C2CC2)CC1 (stereo not shown) [Example 209, Cyclopropyl-{4-[1-methoxy-1-(4-quinolin-3-yl-phenyl)-ethyl]-piperidin-1-yl}-methanone] | 1 to 99 nM
CCC(=O)N1CCC(C(CC)(OC)c2ccc(-c3cnc4ccccc4c3)cc2)CC1 (stereo not shown) [Example 210, 1-{4-[1-Methoxy-1-(4-quinolin-3-yl-phenyl)-propyl]-piperidin-1-yl}-propan-1-one] | 1000 to 10000 nM
CCC(OC)(c1ccc(-c2cnc3ccccc3c2)cc1)C1CCN(C(=O)C2CC2)CC1 (stereo not shown) [Example 211, Cyclopropyl-{4-[1-methoxy-1-(4-quinolin-3-yl-phenyl)-propyl]-piperidin-1-yl}-methanone] | 1000 to 10000 nM
CCC(=O)N1CCC(C(C)(OC)c2ccc(-c3ccc4cccnc4c3)cc2)CC1 (stereo not shown) [Example 212, 1-{4-[1-Methoxy-1-(4-quinolin-7-yl-phenyl)-ethyl]-piperidin-1-yl}-propan-1-one] | 1 to 99 nM
COC(C)(c1ccc(-c2ccc3cccnc3c2)cc1)C1CCN(C(=O)C2CC2)CC1 (stereo not shown) [Example 213, Cyclopropyl-{4-[1-methoxy-1-(4-quinolin-7-yl-phenyl)-ethyl]-piperidin-1-yl}-methanone] | 100 to 999 nM
CCOC(C)(c1ccc(-c2ccc3cccnc3c2)cc1)C1CCN(C(=O)CC)CC1 (stereo not shown) [Example 214, 1-{4-[1-Ethoxy-1-(4-quinolin-7-yl-phenyl)-ethyl]-piperidin-1-yl}-propan-1-one] | 100 to 999 nM
CCOC(C)(c1ccc(-c2ccc3cccnc3c2)cc1)C1CCN(C(=O)C2CC2)CC1 (stereo not shown) [Example 215, Cyclopropyl-{4-[1-ethoxy-1-(4-quinolin-7-yl-phenyl)-ethyl]-piperidin-1-yl}-methanone] | 100 to 999 nM
CCC(=O)N1CCC(C(CC)(OC)c2ccc(-c3ccc4cccnc4c3)cc2)CC1 (stereo not shown) [Example 216, 1-{4-[1-Methoxy-1-(4-quinolin-7-yl-phenyl)-propyl]-piperidin-1-yl}-propan-1-one] | 1000 to 10000 nM
CCC(OC)(c1ccc(-c2ccc3cccnc3c2)cc1)C1CCN(C(=O)C2CC2)CC1 (stereo not shown) [Example 217, Cyclopropyl-{4-[1-methoxy-1-(4-quinolin-7-yl-phenyl)-propyl]-piperidin-1-yl}-methanone] | 1000 to 10000 nM
CCC(=O)N1CCC(Cc2ccc(-c3cnc4ccccc4c3)cc2)C(=O)C1 (stereo not shown) [Example 220, 1-Propionyl-4-(4-quinolin-3-yl-benzyl)-piperidin-3-one] | 100 to 999 nM
CCC(=O)N1CCC(F)(C(=O)c2ccc(-c3ccc4cccnc4c3C)cc2)CC1 [Example 222, 1-{4-Fluoro-4-[4-(8-methylquinolin-7-yl)-benzoyl]-piperidin-1-yl}-propan-1-one] | 1000 to 10000 nM
CCC(=O)N1CCC(F)(C(O)c2ccc(-c3ccc4cccnc4c3C)cc2)CC1 (stereo not shown) [Example 223] | 1 to 99 nM
